{"source": "patent US20120309684A1", "about": "“CONJUGATES FOR DELIVERY OF BIOLOGICALLY ACTIVE COMPOUNDS” (ISIS INNOVATION LIMITED, priority 2009, published 2012)", "origin": "cited, not measured here", "key": {"[1]": {"system": "cardiac compared with skeletal muscle"}, "dystrophin protein": {"system": "dystrophin protein", "conditions": "seven weekly doses at 100 mg/kg, systemic intravenous"}}, "data": [{"substance": "ASSLNIA (Sequence for inclusion in target-delivery peptide) [MSP]", "values": [{"measurement": "lower binding affinity for cardiac compared with skeletal muscle", "setting": "[1]", "result": "2-3 fold"}]}, {"substance": "GGCCAAACCTCGGCTTACCTGAAAT (all phosphorodiamidate morpholino (PMO); Tested constructs carry cell-penetrating peptides (B, MSP) conjugated to PMO)", "values": [{"measurement": "restoration of dystrophin protein with naked PMO", "setting": "dystrophin protein", "result": "moderate restoration"}]}]}
